Tested on: GSC1228 cells
Experiment: ChIP-seq analysis of histone modifications
Assay type: cell-based, human
Conditions: GSC1228, 5 μM, versus DMSO
Experimental: Cells (1 × 10^6) were treated with 1% formaldehyde for 8 min to crosslink histones to DNA. After washing with cold PBS, cell pellets were lysed with lysis buffer (10 mM Tris-HCl, 0.25% Triton X-100, 10 mM EDTA, and 0.1 M NaCl). Cell nuclei were collected after centrifugation and re-suspended in SDS lysis buffer (1% SDS, 150 mM NaCl, 50 mM HEPES-KOH, 2 mM EDTA, 1% Triton X-100, and 0.1% sodium deoxycholate). Chromatin was sonicated using Covaris S220 (Covaris, Moburn, MA, USA). Lysates were incubated overnight with 50 μL of Dynabeads Protein G (Thermo Fisher Scientific) which were pre-coated with 4 μL of anti-H3K4me1 antibody (ab8895, Abcam, Cambridge, UK), 3 μL of anti-H3K4me2 antibody (#39141, Active Motif), 2.5 μL of anti-H3K4me3 antibody (#39159, Active Motif), 4 μL of anti-H3K9me2 antibody (ab1220, Abcam). The beads were washed and protein-DNA complexes were eluted with elution buffer (1% SDS, 10 mM EDTA, and 50 mM Tris-HCl) and then treated with RNase for 2 h at 37°C followed by proteinase K treatment overnight. DNA was extracted by the phenol/chloroform method, ethanol-precipitated and re-suspended in 0.1 × TE buffer. 10% of the lysate was treated with RNase and proteinase K and de-crosslinked as input samples.
ChIP DNA (n = 2 for each antibody in each condition) was used to make sequence libraries using NEBNext Ultra II DNA library Prep kit for the Illumina (New England Biolabs, Ipswich, MA, USA). Library quality was checked using the Agilent Bioanalyzer 2100 (Agilent Technologies, Santa Clara, CA, USA) and then libraries were run on an Illumina Hiseq XTen (Illumina, San Diego, CA, USA).
ChIP-seq clean reads were obtained from raw reads by the removal of adaptors and low-quality reads. The clean reads were aligned to the human genome (hg38) using Bowtie2 (version 2.4.2). The levels of histone modification at gene promoters were estimated by counting the numbers of reads mapped within a 2-kb region around the transcriptional start site using MACS2 [30] and HOMER [31]. Differential analysis of peaks and generation of heatmap were performed using BEDtools v2.30.0 [32]. HOMER was used to annotate ChIP-seq peaks for genomic location and link these peaks to nearby genes. TF binding motif analysis was performed using HOMER. BEDtools was used to obtain overlap peaks with super-enhancers and H3K4me2 peaks. Furthermore, we used our deposited GSC316 H3K27ac ChIP-seq data (GSE178471) and identified super-enhancers by the Rank Ordering of Super Enhancer (ROSE) algorithm. From this analysis, we identified 672 super-enhancers.
To precisely evaluate the effects of S2172 on histone modifications at a genome-wide scale, we performed ChIP-seq analysis in GSC1228 cells treated with either DMSO or S2172. […]

Compound: NC1CCC(NC2CC2c2cc(F)cc(F)c2OCc2ccccc2)CC1 (stereo not shown) [S2172]
- de novo H3K4me3 regions after treatment: 2582 regions
- new H3K4me2 regions (de novo regions) after treatment: 20,085 regions
- regions already modified by H3K4me2 with increased H3K4me2 after treatment: 25,326 regions
- regions from which H3K4me2 was lost after treatment: 5788 regions
